This is an account of results in publication PMC11152041, “Tricarbonyl rhenium(I) complexes with 8-hydroxyquinolines: structural, chemical, antibacterial, and anticancer characteristics” (RSC Advances, 2024).

In brackets after ≈: the same amount, converted by molar mass. Read-outs that look alike come from different tables or passages of the source.

In data set [1] the test system is solid tumor cells (SKOV-3, PC-3, MCF-7). As to the kind of experiment: MTT cytotoxicity assay, solid tumor cell lines taken together. The format is cell-based. Conditions: Homo sapiens, read-out: IC50 against solid tumor cells. On the procedure:
For comparison, cisplatin was added to the cytotoxicity assays.
All experiments were performed in exponentially growing cultures.
Background: Formazan colour is commonly taken as a measure of viable cells.

For a further data set, the system named is MCF-10A cells. As to the kind of experiment: MTT cytotoxicity assay. Conditions: read-out: IC50 ± SD.
A further data set concerns E. faecalis ATCC29212. As to the kind of experiment: Broth microdilution MIC/MBC (ISO 20776-1). The data set is classed as cell-based, Enterococcus faecalis. (In broth dilution the organism is exposed to a series of concentrations in liquid medium.)
The test system of a further data set is HL-60 cells. As to the kind of experiment: MTT cytotoxicity assay. The format is cell-based, human. The settings on record: read-out: IC50 ± SD.
Another data set has as its system MCF-7 cells. As to the kind of experiment: MTT cytotoxicity assay. The format is cell-based, human. Conditions: read-out: IC50 ± SD.
Another data set relates to SKOV-3 cells. As to the kind of experiment: MTT cytotoxicity assay. The format is cell-based, human. The settings on record: read-out: IC50 ± SD.
The subject of the next data set is PC-3 cells. As to the kind of experiment: MTT cytotoxicity assay. The format is cell-based, human. The settings on record: read-out: IC50 ± SD.
The next data set concerns E. coli ATCC25922. As to the kind of experiment: Broth microdilution MIC/MBC (ISO 20776-1). The data set is classed as cell-based, Escherichia coli.
The next data set has as its system S. aureus ATCC29213. As to the kind of experiment: Broth microdilution MIC/MBC (ISO 20776-1). The format is cell-based, Staphylococcus aureus.
In a further data set the test system is P. aeruginosa ATCC27853. As to the kind of experiment: Broth microdilution MIC/MBC (ISO 20776-1). The data set is classed as cell-based, Pseudomonas aeruginosa.
Data set [2] concerns human cervical adenocarcinoma (HeLa) cells. Conditions: cited from earlier work.
Data set [3] in a line: Stability of the complexes in DMSO by NMR (exchange of pyrazole ligand with DMSO). The data set is classed as physicochemical. On the procedure: In 3, after two days, an equilibrium between the Hdmpz and DMSO complexes stabilizes at 77% to 23% ratio (Fig. S34 ^†). Complex 3 can be recovered from the mixture by DMSO evaporation and the complex with water is even weaker. In the case of 3-phenylpyrazole in 8, the complex amount drops to 50% immediately after dissolving and after 24 h reaches ratio of 39% to 61% (Fig. S35 ^†).
The chemicals were purchased from Sigma-Aldrich and only 5-chloro-8-hydroxyquinoline from TCI. Their purity was 98 or 99% (for 3-phenylpyrazole – 97%). Anhydrous solvents with HPLC grade (≥99.9%) were applied. All chemicals were used without further purification. Elemental analysis was performed on an Elementar Vario EL III analyzer. UV-Vis spectra of methanol solutions were recorded in the 200–900 nm range with a Jasco V-750 spectrometer. Infrared absorption spectra in the 400–4000 cm^−1 range were recorded with a Thermo Scientific Nicolet iS10 FT-IR spectrometer using KBr pellets. ^1H and ^13C NMR spectra of DMSO-d6 or CDCl3 solutions were recorded at 25 °C on a Varian VNMRS-500 or Varian 400MR spectrometer operated at 499.8 and 400 MHz, respectively. The NMR spectra were referenced to the internal reference of tetramethylsilane (TMS).

Regarding `Cc1ccc2cccc(O)c2n1` [MeHQ, 2-methyl-8-hydroxyquinoline, reference compound], the IC50 (in general, the concentration that inhibits the measured activity by half) in data set [1] is over 100 µM; in the data set with MCF-10A cells (Homo sapiens, MCF-10A, 24 h), over 100 µM; in the data set with MCF-10A cells (Homo sapiens, MCF-10A, 48 h) it was over 100 µM; in the data set on HL-60 cells (Homo sapiens, HL-60, 24 h), 27 ± 2 µM; in the data set on HL-60 cells (Homo sapiens, HL-60, 48 h) it was 18 ± 2 µM; in the data set with MCF-7 cells (Homo sapiens, MCF7, 24 h) it was over 100 µM. Also, the 50% inhibitory concentration (IC50) with MCF-7 cells (Homo sapiens, MCF7, 48 h) is over 100 µM; in the data set on SKOV-3 cells (Homo sapiens, SK-OV-3, 24 h) it was over 100 µM; in the data set with SKOV-3 cells (Homo sapiens, SK-OV-3, 48 h) it was over 100 µM; with PC-3 cells (Homo sapiens, PC-3, 24 h), 62 ± 8 µM; in the data set with PC-3 cells (Homo sapiens, PC-3, 48 h), over 100 µM. In addition, the MBC (usually the smallest concentration meeting the test's criterion for killing) against E. faecalis ATCC29212 (Enterococcus faecalis, ATCC29212) was 32 µg/mL (≈ 201 µM); in the data set with E. coli ATCC25922 (Escherichia coli, ATCC25922) it was over 512 µg/mL; against S. aureus ATCC29213 (Staphylococcus aureus, ATCC29213), 128 µg/mL (≈ 804 µM); against P. aeruginosa ATCC27853 (Pseudomonas aeruginosa, ATCC27853) it was over 512 µg/mL. In addition, the minimal inhibitory concentration (MIC) (commonly the smallest concentration in the dilution series that meets the test's criterion for growth inhibition) in the data set on E. faecalis ATCC29212 (Enterococcus faecalis, ATCC29212, 24 h) is 32 µg/mL (≈ 201 µM); against E. coli ATCC25922 (Escherichia coli, ATCC25922, 24 h), 32 µg/mL (≈ 201 µM); in the data set with S. aureus ATCC29213 (Staphylococcus aureus, ATCC29213, 24 h), 32 µg/mL (≈ 201 µM); in the data set on P. aeruginosa ATCC27853 (Pseudomonas aeruginosa, ATCC27853, 24 h) it was 256 µg/mL (≈ 1610 µM).
For the molecule `C1N2CN3CN1CP(C2)C3.[C-]#[O+].[C-]#[O+].[C-]#[O+].[Re][O]c1cccc2cccnc12` [[Re(CO)3(Q)(PTA)]], the cytotoxicity result in data set [2] is “moderate activity”.
Regarding `Cc1ccc2cccc([O][Re])c2n1.[C-]#[O+].[C-]#[O+].[C-]#[O+].c1ccc(-c2ccn[nH]2)cc1` [complex 8, [Re(CO)3(MeQ)HPhpz]], the half-inhibitory concentration (IC50) in the data set on MCF-10A cells (MCF-10A (non-cancerous), 24 h, MTT, * precipitation of the complex) was found to be 36 ± 1 µM; in the data set with MCF-10A cells (MCF-10A (non-cancerous), 48 h, MTT, * precipitation of the complex), 21 ± 4 µM; in the data set with HL-60 cells (HL-60, 24 h, MTT) it was 9 ± 1 µM; in the data set with HL-60 cells (HL-60, 48 h, MTT) it was 8 ± 1 µM; with MCF-7 cells (MCF-7, 24 h, MTT), 68 ± 4 µM; with MCF-7 cells (MCF-7, 48 h, MTT) it was 53 ± 3 µM. For the same molecule, the IC50 with SKOV-3 cells (SKOV-3, 24 h, MTT) is over 100 µM; in the data set on SKOV-3 cells (SKOV-3, 48 h, MTT) it was 41 ± 7 µM; in the data set with PC-3 cells (PC-3, 24 h, MTT), 39 ± 5 µM; in the data set on PC-3 cells (PC-3, 48 h, MTT), 31 ± 5 µM. The MBC was over 512 µg/mL against E. faecalis ATCC29212 (E. faecalis ATCC29212, >99.99% reduction of growth); >512/>512 mg L^−1 against E. coli ATCC25922 (E. coli ATCC25922, >99.99% reduction of growth); over 512 µg/mL against S. aureus ATCC29213 (S. aureus ATCC29213, >99.99% reduction of growth); >512/>512 mg L^−1 against P. aeruginosa ATCC27853 (P. aeruginosa ATCC27853, >99.99% reduction of growth). Further, the MIC against E. faecalis ATCC29212 (E. faecalis ATCC29212, MH II broth, 35 °C, 24 h) is 32 µg/mL; against E. coli ATCC25922 (E. coli ATCC25922, MH II broth, 35 °C, 24 h), >512/>512 mg L^−1; against S. aureus ATCC29213 (S. aureus ATCC29213, MH II broth, 35 °C, 24 h) it was 128 µg/mL; with P. aeruginosa ATCC27853 (P. aeruginosa ATCC27853, MH II broth, 35 °C, 24 h), >512/>512 mg L^−1. Further, the “share of the DMSO complex” value in [3] (after 24 h) is 61%. In addition, the “share of the HPhpz complex” value in [3] (after 24 h) is 39%. Also, the complex amount in [3] (immediately after dissolving) came out at 50%.
